In patent US20250382332A1, “NOVEL ALPHA-FACTOR BASED PEPTIDES WITH ANTIFUNGAL ACTIVITY” (INVAIO SCIENCES, INC., priority 2024, published 2025):
Peptide text beside a SMILES is read from it.

Test system: Botrytis cinerea (B05.10)
Test: Resazurin antifungal assay of 180 alpha-factor peptide variants towards Botrytis (Example 2)
Type: cell-based
Details: % inhibition of fungal growth, Botrytis conidia, resazurin; for Inhibition at 50 μM: peptide 50 μM; for Inhibition at 100 μM: peptide 100 μM
Outline: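 B. cinerea B05.10 conidia (5000/well) were exposed to peptides at 100, 50, 20, 15 and 10 μM final for 24 h at 20° C. Resazurin was then added and fluorescence read at 570/620 nm. Percent growth inhibition was calculated against conidia-only wells, with four technical replicates.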

Row | Structure (SMILES) | Inhibition at 50 μM | Inhibition at 100 μM
1 | CC[C@H](C)[C@H](NC(=O)[C@H](Cc1c[nH]c2ccccc12)NC(=O)[C@H](Cc1c[nH]cn1)NC(=O)[C@@H]1CCCN1)C(=O)N[C@@H](CCC(N)=O)C(=O)N[C@@H](CC(C)C)C(=O)N[C@@H](Cc1ccccc1)C(=O)N[C@@H](CC(N)=O)C(=O)NCC(=O)N[C@@H](CCC(N)=O)C(=O)N1CCC[C@H]1C(=O)N[C@@H](CCSC)C(=O)N[C@@H](Cc1ccc(O)cc1)C(=O)O [compound 37] (H-PHWIQLFNGQPMY-OH; N-terminus and C-terminus assumed) | <90% | <90%
2 | CSCC[C@H](NC(=O)[C@@H]1CCCN1C(=O)[C@H](CCC(=O)O)NC(=O)CNC(=O)[C@@H]1CCCN1C(=O)[C@H](CCCCN)NC(=O)[C@H](Cc1ccccc1)NC(=O)[C@H](CCC(N)=O)NC(=O)[C@H](CC(C)C)NC(=O)[C@@H](NC(=O)[C@H](Cc1c[nH]cn1)NC(=O)[C@@H](N)CCCCN)C(C)C)C(=O)N[C@@H](Cc1ccc(O)cc1)C(=O)O [compound 38] (H-KHVLQFKPGEPMY-OH; N-terminus and C-terminus assumed) | <90% | <90%
3 | CSCC[C@H](NC(=O)[C@@H]1CCCN1C(=O)[C@H](CCC(N)=O)NC(=O)CNC(=O)[C@@H]1CCCN1C(=O)[C@H](CCCCN)NC(=O)[C@H](Cc1ccccc1)NC(=O)[C@H](CCC(N)=O)NC(=O)CNC(=O)[C@H](Cc1c[nH]c2ccccc12)NC(=O)[C@H](CO)NC(=O)[C@@H](N)CCCCN)C(=O)N[C@@H](Cc1ccc(O)cc1)C(=O)O [compound 39] (H-KSWGQFKPGQPMY-OH; N-terminus and C-terminus assumed) | <90% | <90%
4 | CC[C@H](C)[C@H](NC(=O)[C@H](Cc1c[nH]c2ccccc12)NC(=O)[C@H](CCC(=O)O)NC(=O)[C@@H]1CCCN1)C(=O)N[C@@H](CCC(N)=O)C(=O)N[C@@H](CC(C)C)C(=O)N[C@@H](CCCCN)C(=O)N[C@H](C(=O)NCC(=O)N[C@@H](CCSC)C(=O)N1CCC[C@H]1C(=O)N[C@@H](CCSC)C(=O)N[C@@H](Cc1ccc(O)cc1)C(=O)O)[C@@H](C)O [compound 40] (H-PEWIQLKTGMPMY-OH; N-terminus and C-terminus assumed) | <90% | <90%
5 | CSCC[C@H](NC(=O)[C@@H]1CCCN1C(=O)[C@H](CCC(N)=O)NC(=O)CNC(=O)[C@@H]1CCCN1C(=O)[C@H](CCCCN)NC(=O)[C@H](Cc1ccccc1)NC(=O)[C@H](CC(N)=O)NC(=O)[C@H](CC(C)C)NC(=O)[C@H](CC(C)C)NC(=O)[C@H](Cc1c[nH]cn1)NC(=O)[C@@H]1CCCN1)C(=O)N[C@@H](Cc1ccc(O)cc1)C(=O)O [compound 41] (H-PHLLNFKPGQPMY-OH; N-terminus and C-terminus assumed) | <90% | <90%
6 | CSCC[C@H](NC(=O)[C@@H]1CCCN1C(=O)[C@H](CCC(N)=O)NC(=O)CNC(=O)[C@H](CO)NC(=O)[C@H](Cc1c[nH]c2ccccc12)NC(=O)[C@H](CC(C)C)NC(=O)[C@H](CCC(N)=O)NC(=O)CNC(=O)[C@H](CO)NC(=O)[C@H](Cc1c[nH]cn1)NC(=O)[C@@H]1CCCN1)C(=O)N[C@@H](Cc1ccc(O)cc1)C(=O)O [compound 42] (H-PHSGQLWSGQPMY-OH; N-terminus and C-terminus assumed) | <90% | <90%
7 | CSCC[C@H](NC(=O)[C@@H]1CCCN1C(=O)[C@H](CCC(N)=O)NC(=O)CNC(=O)[C@H](CC(C)C)NC(=O)[C@H](CCCCN)NC(=O)[C@H](Cc1ccccc1)NC(=O)[C@H](CCC(N)=O)NC(=O)CNC(=O)[C@H](Cc1c[nH]c2ccccc12)NC(=O)[C@H](Cc1c[nH]cn1)NC(=O)[C@@H]1CCCN1)C(=O)N[C@@H](Cc1ccc(O)cc1)C(=O)O [compound 43] (H-PHWGQFKLGQPMY-OH; N-terminus and C-terminus assumed) | <90% | <90%
